Test results reported in patent US20050054555A1, “Kahalalide compounds for use in cancer therapy” (priority 2001, published 2005).
Entries after “also recorded” stand apart in the source; their conditions may differ.

Key:
[1] = test system: patients with solid tumours; assay: Phase I trial KHF-A-002-01: safety of Kahalalide F weekly infusion over 1 hour; type: in vivo, human
Source text: (§1) The rate of subject entry and escalation to the next dose level will depend upon assessment of the safety profile of patients entered at each dose level. Toxicity will be evaluated and graded according to the Common Toxicity Criteria, version 2.0.
In order to minimize the number of patients treated at the subtoxic dose levels, a single patient will be treated per dose level with 100% dose escalation in the absence of any toxicity G2 (excluding alopecia) during their first course of treatment. After the occurrence of grade 2 toxicity (excluding asthenia, alopecia, nausea and vomiting or anemia), the dose level is expanded to three patients with only 50% incremental increase in dosage in advancing to the next dose level. For the occurrence of grade 3 non-hematological toxic effects the dose level should be expanded up to six patients. This second cohort of 3 patients will be included consecutively. If the first or second patient develops dose limiting toxicities no further patients will be treated at this dose level, it will be defined as MTD and the accrual will begin at a lower dose level. If only one DLT occurs at this dose level another 3 patients will be included at the next dose level with an increase of 25% only.
The maximum tolerated dose (MTD) is defined as the dose at which at least 2 out of 3 or more than 3 patients experience DLT. However, it is possible that additional patients may experience DLT due to the timing of patient enrollment into that dose level.
The toxicity will be evaluated and clasified in grades according to the Common Toxicity Criteria (CTC) version NCI 2.0, March 1998.
Dose Limiting Toxicities (DLTs) are Defined as Follows: […]
ANC <500/mm3 for more than 5 days.
ANC <500/mm3 with a temperature of 38'5 or more.
Any other non-hematological grade 3-4 toxicity excluding: nausea, emesis without prophilaxis
G3 transaminases increase >14 days
Hypersensibility reactions

[2] = test system: solid tumours
Experimental: KHF-A-002-01. Phase I Clinical and Pharmacokinetic study to determine the safety of Kahalalide F administered as a weekly infusion over 1 hour in patients with solid tumours.
This trial was addressed to any solid tumours and was designed as a classical escalation. […] One cycle in this trial means a week, so 4 cycles mean 1 month of treatment.

[3] = test system: female mice; settings: single bolus iv injection; cited from earlier work
[4] = test system: advanced or metastatic androgen refractory prostate cancer
Experimental: OBJECTIVE: In the present phase I clinical and pharmacokinetic (PK) study the toxicity profiles PK and anti-tumour activity of KF are investigated. METHODS: KF is administered as an intravenous infusion over one hour, during five consecutive days every three weeks in patients with advanced or metastatic androgen refractory prostate cancer. On the basis of the MTD values defined in mice, a starting dose of 20 μg/m2/day was selected, which is equivalent to a total dose of 100 μg/m2. PK of KF were determined in plasma during the first course. Bioanalysis of KF was performed by LC-MS/MS. LDH, AF and especially PSA levels of each patient were also evaluated during the study to determine the activity of KF. […] One patient per level was entered at 20, 40, 80 and 160 μg/m2/day. […] The first patient of this study was re-entered at this dose level.

[5] = test system: prostate cancer
[6] = test system: human patients afflicted with cancer; assay: Clinical programme (both phase I trials): toxicity summary; type: in vivo
Experimental: Clinical trials were carried out based on the following protocols:
as §1

[7] = weekly 1 h infusion, all dose levels
[8] = weekly 1 h infusion, all dose levels, 19 patients evaluated
[9] = weekly 1 h infusion, all dose levels, head prints 20 patients
[10] = 400 mcg/m2 weekly, 6 months (24 cycles)

C/C=C1\NC(=O)[C@H](Cc2ccccc2)NC(=O)[C@@H](C(C)C)NC(=O)[C@@H](C(C)CC)NC(=O)[C@H](NC(=O)C(NC(=O)[C@H](CCCN)NC(=O)[C@H]2CCCN2C(=O)[C@H](NC(=O)[C@@H](NC(=O)[C@@H](NC(=O)[C@H](NC(=O)CCCC(C)C)C(C)C)C(C)O)C(C)C)C(C)C)C(C)CC)C(C)OC(=O)[C@H](C(C)C)NC1=O (single isomer, unassigned) [kahalalide F]
incidence of grade 4 hypertransaminasemia ([1]; 800-1200 mcg/m2/wk): all the patients had grade 4 hypertransaminasemia | time of onset of grade 4 hypertransaminasemia after the infusion ([1]; 1200 mcg/m2 weekly): 5 h | Worst toxicity ([1]; Level VI, dose 1000 weekly, 3 patients): Hypersensitivity; also recorded: hypertrans | Bronchoconstriction observed ([1]; highest dose level (1000 and 1200)): two patients | reversibility of hypertransaminasemia overall ([1]; patients remained asymptomatic): completely reversible | reversibility of hypertransaminasemia ([1]; patients treated at 1000 and 1200): not reversible by day 8 | dose at which the DLT (grade 4 hypertransaminasemia non reversible by day 21) was identified ([1]; weekly 1 h infusion): 1200 mcg/m2 | Nonhematologic toxicity, laboratory abnormalities: Alk. phosphatase, Grade 1 [1, 7]: 27.8 | Nonhematologic toxicity, laboratory abnormalities: Alk. phosphatase, Grade 2 [1, 7]: 11.1 | Nonhematologic toxicity, laboratory abnormalities: Alk. phosphatase, Grade 3 [1, 7]: 0 | Nonhematologic toxicity, laboratory abnormalities: Alk. phosphatase, Grade 4 [1, 7]: 0 | Nonhematologic toxicity, laboratory abnormalities: Bilirubin, Grade 1 [1, 7]: 5.6 | Nonhematologic toxicity, laboratory abnormalities: Bilirubin, Grade 2 [1, 7]: 0 | Nonhematologic toxicity, laboratory abnormalities: Bilirubin, Grade 3 [1, 7]: 0 | Nonhematologic toxicity, laboratory abnormalities: Bilirubin, Grade 4 [1, 7]: 0 | Nonhematologic toxicity, laboratory abnormalities: CPK, Grade 1 [1, 7]: 36.8 | Nonhematologic toxicity, laboratory abnormalities: CPK, Grade 2 [1, 7]: 0 | Nonhematologic toxicity, laboratory abnormalities: CPK, Grade 3 [1, 7]: 0 | Nonhematologic toxicity, laboratory abnormalities: CPK, Grade 4 [1, 7]: 0 | Nonhematologic toxicity, laboratory abnormalities: Ca++ hyper, Grade 1 [1, 7]: 84.2 | Nonhematologic toxicity, laboratory abnormalities: Ca++ hyper, Grade 2 [1, 7]: 0 | Nonhematologic toxicity, laboratory abnormalities: Ca++ hyper, Grade 3 [1, 7]: 0 | Nonhematologic toxicity, laboratory abnormalities: Ca++ hyper, Grade 4 [1, 7]: 0 | Nonhematologic toxicity, laboratory abnormalities: Ca++ hypo, Grade 1 [1, 7]: 21.1 | Nonhematologic toxicity, laboratory abnormalities: Ca++ hypo, Grade 2 [1, 7]: 0 | Nonhematologic toxicity, laboratory abnormalities: Ca++ hypo, Grade 3 [1, 7]: 0 | Nonhematologic toxicity, laboratory abnormalities: Ca++ hypo, Grade 4 [1, 7]: 0 | Nonhematologic toxicity, laboratory abnormalities: Creatinine, Grade 1 [1, 7]: 31.6 | Nonhematologic toxicity, laboratory abnormalities: Creatinine, Grade 2 [1, 7]: 5.3 | Nonhematologic toxicity, laboratory abnormalities: Creatinine, Grade 3 [1, 7]: 0 | Nonhematologic toxicity, laboratory abnormalities: Creatinine, Grade 4 [1, 7]: 0 | Nonhematologic toxicity, laboratory abnormalities: GGT, Grade 1 [1, 7]: 16.7 | Nonhematologic toxicity, laboratory abnormalities: GGT, Grade 2 [1, 7]: 11.1 | Nonhematologic toxicity, laboratory abnormalities: GGT, Grade 3 [1, 7]: 5.6 | Nonhematologic toxicity, laboratory abnormalities: GGT, Grade 4 [1, 7]: 11.1 | Nonhematologic toxicity, laboratory abnormalities: GOT, Grade 1 [1, 7]: 38.9 | Nonhematologic toxicity, laboratory abnormalities: GOT, Grade 2 [1, 7]: 0 | Nonhematologic toxicity, laboratory abnormalities: GOT, Grade 3 [1, 7]: 0 | Nonhematologic toxicity, laboratory abnormalities: GOT, Grade 4 [1, 7]: 16.7 | Nonhematologic toxicity, laboratory abnormalities: GPT, Grade 1 [1, 7]: 22.2 | Nonhematologic toxicity, laboratory abnormalities: GPT, Grade 2 [1, 7]: 5.6 | Nonhematologic toxicity, laboratory abnormalities: GPT, Grade 3 [1, 7]: 0 | Nonhematologic toxicity, laboratory abnormalities: GPT, Grade 4 [1, 7]: 16.7 | Nonhematologic toxicity, laboratory abnormalities: K+ hypo, Grade 1 [1, 7]: 5.3 | Nonhematologic toxicity, laboratory abnormalities: K+ hypo, Grade 2 [1, 7]: 0 | Nonhematologic toxicity, laboratory abnormalities: K+ hypo, Grade 3 [1, 7]: 0 | Nonhematologic toxicity, laboratory abnormalities: K+ hypo, Grade 4 [1, 7]: 0 | Nonhematologic toxicity, laboratory abnormalities: Na+ hypo, Grade 1 [1, 7]: 21.1 | Nonhematologic toxicity, laboratory abnormalities: Na+ hypo, Grade 2 [1, 7]: 0 | Nonhematologic toxicity, laboratory abnormalities: Na+ hypo, Grade 3 [1, 7]: 0 | Nonhematologic toxicity, laboratory abnormalities: Na+ hypo, Grade 4 [1, 7]: 5.3 | Hematologic toxicity (worst per patient): Hemoglobin, Grade 1 [1, 8]: 57.9 | Hematologic toxicity (worst per patient): Hemoglobin, Grade 2 [1, 8]: 21.1 | Hematologic toxicity (worst per patient): Hemoglobin, Grade 3 [1, 8]: 0 | Hematologic toxicity (worst per patient): Hemoglobin, Grade 4 [1, 8]: 0 | Hematologic toxicity (worst per patient): Leukocytes, Grade 1 [1, 8]: 15.8 | Hematologic toxicity (worst per patient): Leukocytes, Grade 2 [1, 8]: 5.3 | Hematologic toxicity (worst per patient): Leukocytes, Grade 3 [1, 8]: 0 | Hematologic toxicity (worst per patient): Leukocytes, Grade 4 [1, 8]: 0 | Hematologic toxicity (worst per patient): Neutrophils, Grade 1 [1, 8]: 5.3 | Hematologic toxicity (worst per patient): Neutrophils, Grade 2 [1, 8]: 5.3 | Hematologic toxicity (worst per patient): Neutrophils, Grade 3 [1, 8]: 0 | Hematologic toxicity (worst per patient): Neutrophils, Grade 4 [1, 8]: 0 | Hematologic toxicity (worst per patient): Platelets, Grade 1 [1, 8]: 10.5 | Hematologic toxicity (worst per patient): Platelets, Grade 2 [1, 8]: 0 | Hematologic toxicity (worst per patient): Platelets, Grade 3 [1, 8]: 0 | Hematologic toxicity (worst per patient): Platelets, Grade 4 [1, 8]: 0 | Most frequently reported non-hematologic toxicities: Diarrhea, Grade 1 [1, 9]: 0 | Most frequently reported non-hematologic toxicities: Diarrhea, Grade 2 [1, 9]: 5.3 | Most frequently reported non-hematologic toxicities: Diarrhea, Grade 3 [1, 9]: 5.3 | Most frequently reported non-hematologic toxicities: Diarrhea, Grade 4 [1, 9]: 0 | Most frequently reported non-hematologic toxicities: Fatigue, Grade 1 [1, 9]: 21.1 | Most frequently reported non-hematologic toxicities: Fatigue, Grade 2 [1, 9]: 21.1 | Most frequently reported non-hematologic toxicities: Fatigue, Grade 3 [1, 9]: 0 | Most frequently reported non-hematologic toxicities: Fatigue, Grade 4 [1, 9]: 0 | Most frequently reported non-hematologic toxicities: Hypersensitivity, Grade 1 [1, 9]: 15.8 | Most frequently reported non-hematologic toxicities: Hypersensitivity, Grade 2 [1, 9]: 5.3 | Most frequently reported non-hematologic toxicities: Hypersensitivity, Grade 3 [1, 9]: 5.3 | Most frequently reported non-hematologic toxicities: Hypersensitivity, Grade 4 [1, 9]: 0 | Most frequently reported non-hematologic toxicities: Hypertension, Grade 1 [1, 9]: 0 | Most frequently reported non-hematologic toxicities: Hypertension, Grade 2 [1, 9]: 0 | Most frequently reported non-hematologic toxicities: Hypertension, Grade 3 [1, 9]: 0 | Most frequently reported non-hematologic toxicities: Hypertension, Grade 4 [1, 9]: 0 | Most frequently reported non-hematologic toxicities: Inject-site reaction, Grade 1 [1, 9]: 0 | Most frequently reported non-hematologic toxicities: Inject-site reaction, Grade 2 [1, 9]: 5.3 | Most frequently reported non-hematologic toxicities: Inject-site reaction, Grade 3 [1, 9]: 0 | Most frequently reported non-hematologic toxicities: Inject-site reaction, Grade 4 [1, 9]: 0 | Most frequently reported non-hematologic toxicities: Nausea, Grade 1 [1, 9]: 31.6 | Most frequently reported non-hematologic toxicities: Nausea, Grade 2 [1, 9]: 10.5 | Most frequently reported non-hematologic toxicities: Nausea, Grade 3 [1, 9]: 0 | Most frequently reported non-hematologic toxicities: Nausea, Grade 4 [1, 9]: 0 | Most frequently reported non-hematologic toxicities: Periph-sens neuro, Grade 1 [1, 9]: 36.8 | Most frequently reported non-hematologic toxicities: Periph-sens neuro, Grade 2 [1, 9]: 0 | Most frequently reported non-hematologic toxicities: Periph-sens neuro, Grade 3 [1, 9]: 5.3 | Most frequently reported non-hematologic toxicities: Periph-sens neuro, Grade 4 [1, 9]: 0 | Most frequently reported non-hematologic toxicities: Vomiting, Grade 1 [1, 9]: 10.5 | Most frequently reported non-hematologic toxicities: Vomiting, Grade 2 [1, 9]: 5.3 | Most frequently reported non-hematologic toxicities: Vomiting, Grade 3 [1, 9]: 0 | Most frequently reported non-hematologic toxicities: Vomiting, Grade 4 [1, 9]: 0 | dose limiting toxicity ([1]; weekly schedule): grade 4 hypertransaminasemia | time of hypertransaminasemia peak/appearance after the infusion ([1]; weekly schedule): 4 to 5 h | overall response in a patient with hepatocellular carcinoma [2, 10]: stable disease | response in a patient with hepatocellular carcinoma (target lesion) [2, 10]: Partial response in one target lesion | efficacy in a patient with epidermoid carcinoma of the cavum ([2]; 400 mcg/m2 weekly, ORL exploration): Subjective improvement and non evaluable response | efficacy in a patient with non small cell lung cancer ([2]; 530 mcg/m2 weekly, 4 months (16 infusions)): without evidence of progression disease | Efficacy (tumour type with hints of efficacy) ([2]; Level III, dose 530 weekly): NSCLC | efficacy in one patient with peritoneal mesothelioma ([2]; weekly schedule): clinical benefit with reduction of ascytes volume | maximum tolerated dose (MTD) [3]: 0.28 mg/kg | decrease in PSA level ([4]; one patient, associated with pain relief, preliminary report): > 50% | response evaluated by PSA, one patient ([4]; patient received 8 cycles, clinical improvement): partial response | PSA change in two additional patients ([4]; preliminary report): minor PSA reductions | concentration from which active in the clonogenic tumour assay [5]: ≥ 15 ng/mL | Grade 1-2 neutropenia, share of patients [6]: 10% | Grade 1 hypokalyemia, share of patients [6]: 20% | grade 1 hypophosphatemia, share of patients [6]: 10% | grade 1 renal toxicity, share of patients [6]: about 35% | grade 2 hypophosphatemia, share of patients [6]: 15% | grade 3-4 hematologic toxicities [6]: No grade 3-4 toxicities were reported
